Results reported in patent publication US20120171123A1, “USES AND COMPOSITIONS FOR TREATMENT OF RHEUMATOID ARTHRITIS” (priority 2006, published 2012).

Legend:
[1] = tested on: patients with long-standing RA; test: Study 4 (open-label extension, adalimumab 40 mg eow + MTX): ACR response and Major Clinical Response; assay type: in vivo, human
Experimental: The following study was performed to evaluate sustained remission in patients with RA treated with adalimumab and mtx. The study was an open-label extension study, where the last visit of the preceding study was used as the screening visit for Study 4. The study design for Study 4 is described in FIG. 12. The percentage of patients remaining on treatment over time from the first dose of adalimumab remained relatively constant. 846 patients enrolled over time.
ACR response rates and Major Clinical Response (MCR) remained constant through the fourth year of adalimumab treatment. Major Clinical Response (MCR) was defined as patients maintaining an ACR70 response for at least 6 continuous months over a 2-year period. […] At the end of the 4 year time period, 79% of patients had maintained an ACR20, 61% maintained an ACR50 response, and 38% maintained an ACR 70 response.
After these trials, patients were eligible to enroll in two separate OLE studies: Study 4 and Study 5. Patients were evaluated for efficacy and safety every 3 months.
Efficacy outcomes were evaluated as observed data: DAS28; ACR 20/50/70; Tender Joint Count (TJC); Swollen Joint Count (SJC); and HAQ Disability Index. Baseline demographics and disease characteristics were similar in both Study 4 and Study 5 consistent with moderate to severe RA, as shown below in Table 64: […]

[2] = tested on: patients with long-standing RA who had inadequate responses to MTX; test: Study 1: tender and swollen joint counts; assay type: in vivo, human
Experimental: Two readers assessed X-rays performed at baseline (start of RCT), 1 year (end of RCT), and 3 years (post 2 years OLE). Changes from baseline in Total Sharp Score (TSS), Joint Erosions (JE), and Joint Space Narrowing (JSN) were calculated. ACR 20, 50, and 70 response rates, as well as TJC and SJC, were also measured.

[3] = tested on: MTX-naïve adult patients with active, early RA (<3 years); settings: human, in vivo
[4] = tested on: patients with moderate to severe rheumatoid arthritis; test: Study C: DAS28; assay type: in vivo, human
Experimental: The Canadian Adalimumab Clinical Trial (Study C) was an open-label, multi-center, Phase IIIb study conducted in Canada. […] Efficacy and safety were assessed at baseline, 4, 8, and 12 weeks. Efficacy assessments included tender joint count (TJC 0-28), swollen joint count (SJC 0-28), Disease Activity Score 28 (DAS28), Health Assessment Questionnaire (HAQ), and EULAR response. This was a preliminary analysis of 236 patients. The sample size for each outcome variable is based on the data available at the time of the analysis. The data from this preliminary analysis were compared with the Week 12 data from Study A (N=2008).

[5] = tested on: patients with active rheumatoid arthritis; test: Study A: HAQ physical function; assay type: in vivo, human
Description: Efficacy of a treatment for rheumatoid arthritis can be determined by using the health assessment questionnaire (HAQ). Health Assessment Questionaire (HAQ) is a standardized disability questionnaire that was initially developed for use in rheumatoid arthritis (RA). […] The HAQ is a validated questionnaire designed to assess patients' ability to perform activities of daily living, particularly in adult arthritics. The instrument consists of the HAQ Disability Index (20 items), Pain Scale (1 item), and Global Health Status (1 item) that measure disability/physical functioning and quality of life (see Fries (1982) et al. J Rheumatol 9:789).
Improvements in physical function were determined using the HAQ score.
To evaluate the impact of prior biological therapies, patients with moderate to severe RA enrolled at 450 sites in 11 European countries plus Australia (Study A). Patients with moderate to severe RA and an inadequate response to prior DMARD therapies were enrolled in a 12-week open-label study with an optional extension phase. […] Efficacy parameters included ACR20, ACR50, ACR70, EULAR Response, HAQ, tender and swollen joint count (TJC28/SJC28), and DAS28.
Patients with long-standing, moderate to severe RA were enrolled in Study A at 450 sites in 12 different countries. The study design for Study A is outlined in FIG. 21. […] Previous treatment with other biologics was allowed up to 8 weeks before enrollment. Patients met the following inclusion criteria: Age ≧18 years; RA (defined by American College of Rheumatology criteria) for ≧3 months; active, moderate to severe RA (Disease Activity Score (DAS28)≧3.2); unsatisfactory response or intolerance to at least one prior DMARD, including biologics. Efficacy assessments were performed at weeks 0 (baseline), 2, 6, and 12. The key outcomes measured were: change in DAS28; EULAR responses; ACR20, ACR50, ACR70 responses; changes in Tender Joint Count (TJC) and Swollen Joint Count (SJC); and change in Health Assessment Questionnaire (HAQ).
Moderately to severely active RA was defined by Disease Activity Score 28 (DAS28)≧3.2 at baseline. Unsatisfactory response or intolerance to at least one prior DMARD was required for enrollment in Study A. A 12-week study period was followed by an optional extension phase with efficacy and routine safety evaluations performed at Weeks 2, 6, 12, 20, and every 8 weeks thereafter. […] Key efficacy parameters include ACR20, 50, and 70 responses; EULAR responses; and changes in DAS28, Tender Joint Count (TJC), Swollen Joint Count (SJC), C-Reactive Protein (CRP), and Health Assessment Questionnaire Disability Index (HAQ). […] Adverse events (AE) were collected throughout the entire treatment period, also beyond Week 52.

[6] = 12 weeks, all pts in Study A (n=4241)
[7] = 12 weeks, prior biologic: Any (n=688)
[8] = 12 weeks, prior biologic: ETA (n=114)
[9] = 12 weeks, prior biologic: ETA + INF (n=78)
[10] = 12 weeks, prior biologic: INF (n=358)
[11] = 12 weeks, prior biologic: None (n=3553)

## adalimumab: human anti-TNF mAb (HUMIRA, Abbott Laboratories), described in U.S. Pat. No. 6,090,382 as D2E7
[1]; end of 4 years
  patients maintaining ACR20: 79%
  patients maintaining ACR50: 61%
  patients maintaining ACR70: 38%
[1]; patients with at least 3 years of exposure
  patients achieving Major Clinical Response (ACR70 ≧6 continuous months): 31%
[2]; 36 months
  TJC or SJC: 5-7
[2]; last visit
  patients with 0 swollen joints: 22%
  patients with 0 tender joints: 21%
[3]
  withdrawn, reason AE: 11%
[4]; Study C, 12 weeks, preliminary analysis
  DAS28 (mean), change from baseline: −2.1 (116)
[4]; week 12
  mean decrease in DAS28 score: −2.1
  patients achieving DAS28<2.6: 10%
  reduction in DAS28 score: 32%
[4]; week 12 (baseline 6.5)
  mean DAS28: 4.4
[5]; 12 weeks, N=2008 analysis
  improvement in HAQ score: −0.49
  patients achieving HAQ<0.5: 25%
[5]; [6]
  Change in HAQ, mean change from baseline: −0.49
  HAQ < 0.5: 24%
[5]; [7]
  Change in HAQ, mean change from baseline: −0.43
  HAQ < 0.5: 13%
[5]; [8]
  Change in HAQ, mean change from baseline: −0.36
  HAQ < 0.5: 9%
[5]; [9]
  Change in HAQ, mean change from baseline: −0.35
  HAQ < 0.5: 13%
[5]; [10]
  Change in HAQ, mean change from baseline: −0.49
  HAQ < 0.5: 14%
[5]; [11]
  Change in HAQ, mean change from baseline: −0.5
  HAQ < 0.5: 26%
[5]; Week 12, concomitant LEF only (n=557)
  Change in HAQ, mean change from baseline: −0.47
[5]; Week 12, concomitant MTX + LEF (n=123)
  Change in HAQ, mean change from baseline: −0.53
[5]; Week 12, concomitant MTX + SSZ
  Change in HAQ, mean change from baseline: −0.53
[5]; Week 12, concomitant MTX only (n=1561)
  Change in HAQ, mean change from baseline: −0.52
[5]; Week 12, concomitant QC/HQC (n=85)
  Change in HAQ, mean change from baseline: −0.63
[5]; Week 12, concomitant SSZ only (n=89)
  Change in HAQ, mean change from baseline: −0.47
[5]; Wk 12, concomitant MTX Im 15 mg (N=76), no other DMARD
  Change in HAQ, mean change from baseline: −0.55
[5]; Wk 12, concomitant MTX Iv 15 mg (N=23), no other DMARD
  Change in HAQ, mean change from baseline: −0.54
[5]; Wk 12, concomitant MTX Sc 15 mg (N=37), no other DMARD
  Change in HAQ, mean change from baseline: −0.53
[5]; Wk 12, concomitant MTX oral 15 mg (N=405), no other DMARD
  Change in HAQ, mean change from baseline: −0.50
[5]; Wk 12, concomitant MTX oral ≦7.5 (N=127), no other DMARD
  Change in HAQ, mean change from baseline: −0.56
[5]; Wk 12, concomitant MTX oral ≧20 mg (N=216), no other DMARD
  Change in HAQ, mean change from baseline: −0.52
[5]; week 2
  mean change in HAQ score from baseline: −0.32
[5]; week 6
  mean change in HAQ score from baseline: −0.44
[5]; week 12
  mean change in HAQ score from baseline: −0.51
  patients achieving HAQ<0.5: 5%
  patients with a change in HAQ≧−0.22 (MCID): 70%
[5]; week 12 (n=6235)
  change in HAQ: −0.52
[5]; week 12, listed as Adalimumab
  patients achieving HAQ<0.5: 25%
[5]; week 28 (n=4119)
  change in HAQ: −0.56
[5]; week 52 (n=1251)
  change in HAQ: −0.57
